Entries after “also recorded” stand apart in the source; their conditions may differ.
Legend:
[1] = test system: ptc>dRet^MEN2B wing cells; experiment: Wing-based assay for transformation and cell migration (ptc>dRetMEN2B); type: in vivo, Drosophila
Source text: FIG. 4E. Quantification of ptc>dRet^MEN2B phenotypes. Invasion was established by scoring for single/groups of GFP-labeled cells that relocated away from the ptc boundary (FIG. 4C, asterisks). Basal migration was scored as indentation of the apical surface (see FIG. 2B, arrows). Proliferation was scored as significant widening of the ptc boundary. The number of wings analyzed under each condition is indicated in brackets.
We previously developed a wing-based assay for transformation and cell migration that we utilized to explore Ras- and Src-based tumorigenesis (Vidal, M., D. E. Larson, and R. L. Cagan, Dev Cell, 2006. 10(1): p. 33-44). In this assay, the ptc-GAL4 driver directed oncogene expression in a stripe along the anterior-posterior axis; oncogene-based transformation led to over-proliferation, epithelial-to-mesenchymal transition (EMT), and cell migration away from the ptc domain.

[2] = test system: MEN2B (MZ) thyroid cancer cells; experiment: Immunoblot analysis of drug-treated MZ cells; type: cell-based, human; conditions: 1 hour of treatment
Procedure: (§1) FIG. 19. […] MEN2A (TT) and MEN2B (MZ) thyroid cancer cells were treated with the indicated drugs for 3 days at a final concentration of 2 μM. Cell lystates were immunoblotted for protein markers of apoptosis. Vandetanib (vand.) was included for comparison.
(§2) FIG. 20A-20B. […] FIG. 20A. MEN2B (MZ) and FIG. 20B. MEN2A (TT) thyroid cancer cells were treated with the indicated concentrations of drug. Following 1 hour of treatment, cells were harvested and lysates prepared for immunoblotting to detect the indicated proteins. VD=vandetanib; SF=sorafenib.

[3] = test system: 765>dRet^MEN2B wings (Ras/Erk pathway activity); experiment: Adult wing vein pattern assay (765>dRetMEN2B); type: in vivo, Drosophila; conditions: drug fed flies
Source text: The adult Drosophila wing consists of a stereotypical pattern of […] and two cross-veins; increased Ras/Erk pathway activity leads to ectopic veins (e.g., Refs. (Sawamoto, K. et al., Dev Biol, 1996. 178(1): p. 13-22; Guichard, A. et al., Development, 1999. 126(12): p. 2663-76)). Expression of oncogenic dRet throughout the developing wing (765>dRet^MEN2B) led to disruption of the overall adult wing pattern including ectopic wing veins (FIG. 3D). Reducing gene dosage of the erk ortholog rolled (765>dRet^MEN2B erk−/+) suppressed these phenotypes (FIG. 3D), confirming that wing vein formation is dependent on Ras/Erk activity.

ptc>dRet^MEN2B flies = experiment: Drosophila ptc>dRetMEN2B viability assay; type: in vivo; conditions: for rescue of ptc>dRetMEN2B viability (pupae, adults), in words: oral administration, drug mixed into food
Source text: FIG. 1A. Suppression of Ret^MEN2B-induced developmental block and whole animal toxicity were scored based on number of embryos (n) that survived as pupae (x) and adults (y). Drugs were mixed into food and fed to flies starting at larval stages.
FIG. 1B. Percent viability of control or drug treated flies determined for pupae (x/n) and adults (y/n).
Described herein is a Drosophila MEN2B model in which an intracellular mutation in the Drosophila Ret ortholog (dRet) was targeted to the eye (Read, R. D. et al., Genetics, 2005. 171(3): p. 1057-81). […] The screen is conducted in developing drosophila embryos. Under normal circumstances, drosophila embryos pass through four developmental steps: embryo→larvae→pupae→adult. […] We calibrated the ptc>dRetMEN2B assay to permit 50% survival to pupariation and 0% survival to adulthood. Mutated forms of RET are believed to be causative in human thyroid cancers including multiple endocrine neoplasia types 2A and 2B (MEN2A and MEN2B). The screen identifies small molecules that (a) suppress the toxicity induced by oncogenic RET and (b) allow flies to develop to functional adults. […] 64(19): p. 7099-109; Sun, L. et al., J Med Chem, 2003. 46(7): p.

Src = Src (Homo sapiens, UniProt P12931); experiment: In vitro kinase assay, Src; type: biochemical; conditions: in vitro kinase profile, 1 μM
Procedure: (§3) Using in vitro kinase assays we tested AD57, AD36, and AD58 at 1 μM for activity against approximately one-half of the human kinome (FIG. 1E): 165 Ser/Thr kinases, 91 Tyr kinases, and 10 PI kinases were assayed, totaling 266 kinases (244 distinct kinases plus 22 mutant isoforms; see FIG. 6A-6C, FIG. 7A-7F, and FIG. 8 for measured inhibition values).
(§4) At least three major pathways are required for dRet^MEN2B-mediated transformation: Ras, Src, and glucose metabolism/PI3K (FIG. 3A; Ref (Read, R. D. et al., Genetics, 2005. 171(3): p. 1057-81)). We utilized in vitro kinase assays to assess compound activity against relevant kinases from each of these pathways, specifically Ret, B-Raf, Src, Tor, and S6K (FIG. 3B).

B-Raf = B-Raf (Homo sapiens, UniProt P15056); experiment: In vitro kinase assay, B-Raf; type: biochemical; conditions: in vitro kinase profile, 1 μM
Procedure: as §3, §4

wild type flies = experiment: Viability of drug treated wild-type flies; type: in vivo, Drosophila
Source text: FIG. 4B. Decreased viability of wild type flies by AD58 was mitigated by co-administration of Sorafenib or AZD6244.
FIG. 15. Percent viability of control and drug treated wild-type flies (WT). The proportion of WT pupae and adults that survived from the total number of embryos (indicated in brackets below) are represented as column graphs. (Pupae left, Adults right)

S6K = S6K (Homo sapiens, UniProt P23443); experiment: In vitro kinase assay, S6K; type: biochemical; conditions: in vitro kinase profile, 1 μM
Procedure: as §3, §4

mTor = mTor (Homo sapiens, UniProt P42345); experiment: In vitro kinase assay, mTor; type: biochemical; conditions: in vitro kinase profile, 1 μM
Procedure: as §3, §4

[4] = test system: MEN2A (TT) thyroid cancer cells; experiment: Immunoblot analysis of drug-treated TT cells; type: cell-based, human; conditions: 1 hour of treatment
Procedure: as §1, §2

Ret kinase domain = biological target: T1, Ret kinase domain (Homo sapiens, UniProt P07949); experiment: In vitro kinase assay, Ret; type: biochemical; conditions: in vitro kinase profile, 1 μM
T1 construct: determined against a purified form of the Ret kinase domain
T1 sequence (P07949 724-1016 limits assumed): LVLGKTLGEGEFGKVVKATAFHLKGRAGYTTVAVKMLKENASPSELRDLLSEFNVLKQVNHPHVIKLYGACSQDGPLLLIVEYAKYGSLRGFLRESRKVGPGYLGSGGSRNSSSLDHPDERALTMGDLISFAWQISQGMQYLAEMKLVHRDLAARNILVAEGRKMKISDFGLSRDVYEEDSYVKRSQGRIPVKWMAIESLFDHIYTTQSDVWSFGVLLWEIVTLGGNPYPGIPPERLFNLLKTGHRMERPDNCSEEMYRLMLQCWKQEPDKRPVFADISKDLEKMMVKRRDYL
Procedure: FIG. 1D. […] Half maximal inhibitory concentrations (IC50) were determined against a purified form of the Ret kinase domain.
as §3, §4

[5] = test system: MZ-CRC-1 (MEN2B) cancer cell line; experiment: MZ-CRC-1 cell viability (MTT assay); type: cell-based, human
[6] = test system: TT cell tumors in athymic nu/nu mice; experiment: MEN2 (TT) mouse xenograft model; type: in vivo; conditions: nude mice transplanted with TT cells; oral gavage; median per group
Procedure: FIG. 11. […] TT thyroid cancer cells were implanted into athymic nu/nu mice subcutaneously into the right flank under the conditions listed. Upon establishment of tumors, drugs were administered by oral gavage (5 days ON/2 days OFF schedule). Tumors were measured using digital calipers. […] VD=vandetanib.
FIG. 18A-18D. […] FIG. 18A. MEN2B (MZ) thyroid cancer cells were treated with the indicated concentrations of each inhibitor (7 days) and cell viability was quantitated by MTT assay. FIG. 18B. MEN2A (TT) thyroid cancer cells were treated with the indicated concentrations of each inhibitor (7 days) and cell viability was quantitated by MTT assay. FIG. 18C. […] Change in tumor volume was calculated per mouse. Values shown are the median percent change per group. 20 and 10 animals for vehicle and drug treated mice, respectively, were analyzed. FIG. 18D. Body weight measurements of AD80, Vandetanib (VD) and vehicle treated nude mice transplanted with TT cells. Values shown are the median of 20 and 10 animals for vehicle and drug treated mice, respectively.
TT-based tumors were grown for 46 days in athymic nu/nu male mice prior to drug administration.

Sequence of B-Raf (P15056 whole entry): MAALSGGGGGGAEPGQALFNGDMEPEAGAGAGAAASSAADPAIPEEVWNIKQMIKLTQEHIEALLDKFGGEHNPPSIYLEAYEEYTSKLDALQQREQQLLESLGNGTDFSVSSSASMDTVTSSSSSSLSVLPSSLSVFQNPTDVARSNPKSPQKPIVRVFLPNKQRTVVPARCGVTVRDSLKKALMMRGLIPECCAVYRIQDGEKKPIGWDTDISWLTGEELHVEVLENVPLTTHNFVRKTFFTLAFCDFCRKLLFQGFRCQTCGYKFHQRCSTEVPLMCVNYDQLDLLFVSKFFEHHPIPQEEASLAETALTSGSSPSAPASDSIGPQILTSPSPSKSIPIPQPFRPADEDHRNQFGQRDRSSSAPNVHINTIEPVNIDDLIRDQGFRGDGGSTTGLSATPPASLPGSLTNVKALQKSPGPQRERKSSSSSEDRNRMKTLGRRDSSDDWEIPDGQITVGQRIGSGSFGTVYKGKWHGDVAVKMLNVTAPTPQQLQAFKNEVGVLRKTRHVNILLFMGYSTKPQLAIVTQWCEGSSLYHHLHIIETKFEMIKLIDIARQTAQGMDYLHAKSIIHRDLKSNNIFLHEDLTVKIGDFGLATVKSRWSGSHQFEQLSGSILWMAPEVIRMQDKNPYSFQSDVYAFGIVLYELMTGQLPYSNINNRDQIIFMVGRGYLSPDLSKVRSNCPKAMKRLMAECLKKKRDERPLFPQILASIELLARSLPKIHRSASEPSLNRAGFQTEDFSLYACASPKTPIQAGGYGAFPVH
Sequence of S6K (P23443 whole entry): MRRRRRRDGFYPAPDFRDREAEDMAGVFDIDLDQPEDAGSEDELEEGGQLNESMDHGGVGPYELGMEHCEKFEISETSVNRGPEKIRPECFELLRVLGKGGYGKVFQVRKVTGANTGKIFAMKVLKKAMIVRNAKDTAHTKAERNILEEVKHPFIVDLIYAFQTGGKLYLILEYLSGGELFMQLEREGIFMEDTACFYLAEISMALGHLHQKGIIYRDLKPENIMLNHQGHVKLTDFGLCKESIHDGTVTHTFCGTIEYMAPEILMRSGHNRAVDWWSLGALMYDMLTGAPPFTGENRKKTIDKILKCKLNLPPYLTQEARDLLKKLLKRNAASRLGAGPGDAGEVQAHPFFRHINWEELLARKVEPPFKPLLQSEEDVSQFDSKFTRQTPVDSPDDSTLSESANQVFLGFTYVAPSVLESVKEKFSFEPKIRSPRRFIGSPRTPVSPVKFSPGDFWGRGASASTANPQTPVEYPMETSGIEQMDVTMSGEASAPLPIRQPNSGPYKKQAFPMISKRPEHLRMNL
Sequence of Src (P12931 whole entry, canonical isoform): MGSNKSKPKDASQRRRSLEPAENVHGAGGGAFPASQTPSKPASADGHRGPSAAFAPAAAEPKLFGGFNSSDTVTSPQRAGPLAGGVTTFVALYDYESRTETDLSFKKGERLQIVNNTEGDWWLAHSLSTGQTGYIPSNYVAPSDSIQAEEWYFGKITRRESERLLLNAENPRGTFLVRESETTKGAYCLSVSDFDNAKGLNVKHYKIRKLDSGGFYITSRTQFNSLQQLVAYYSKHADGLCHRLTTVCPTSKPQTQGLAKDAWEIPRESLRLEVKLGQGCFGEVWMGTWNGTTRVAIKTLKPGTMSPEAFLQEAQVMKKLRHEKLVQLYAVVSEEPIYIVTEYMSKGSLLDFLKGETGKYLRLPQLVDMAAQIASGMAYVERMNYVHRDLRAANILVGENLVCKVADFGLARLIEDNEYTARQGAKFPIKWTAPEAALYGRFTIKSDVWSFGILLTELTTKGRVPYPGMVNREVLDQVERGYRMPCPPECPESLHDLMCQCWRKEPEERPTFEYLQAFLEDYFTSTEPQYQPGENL

SMILES	suppression of dRetMEN2B-induced proliferation, EMT, invasion/basal migration ([1]; oral administration)	rescue of ptc>dRetMEN2B viability (pupae, adults), in words (ptc>dRet^MEN2B flies)	Src inhibition, in words (Src)	B-Raf (Raf) inhibition, in words (B-Raf)	S6K inhibition, in words (S6K)	mTor inhibition, in words (mTor)	also measured
CC(C)n1nc(-c2ccc(NC(=O)Nc3ccccc3)cc2)c2c(N)ncnc21 [AD58]	failed to prevent invasion/basal migration and not and did not suppress migration	significant toxicity without detectable efficacy	strongly inhibited	much weaker inhibitor	much weaker inhibitor	more potent; also recorded: stronger inhibitor	invasion and migration of dRetMEN2B-transformed cells ([1]; co-treatment AD58 plus Sorafenib): significant suppression of invasion and migration; also recorded: blocked; basal phospho-Src in wing epithelium ([1]; oral administration): prevented basal phospho-Src accumulation; phospho-Ret and downstream biomarkers [2]: potent inhibitors; ectopic wing vein / wing pattern phenotype [3]: slightly but consistently enhanced; effect of reducing dTor on drug efficacy/toxicity (ptc>dRet^MEN2B flies; ptc>dRetMEN2B dTor-/+): enhanced the toxicity; effect of reducing erk gene dosage on drug efficacy in viability assay (ptc>dRet^MEN2B flies; ptc>dRetMEN2B, erk-/+): considerably enhanced the efficacy; whole animal toxicity (wild type flies; fed to ptc>dRetMEN2B and wild type flies): significant whole animal toxicity; phospho-Ret and downstream biomarkers [4]: potent inhibitors
CC(C)n1nc(-c2ccc(NC(=O)Nc3ccc(Cl)c(C(F)(F)F)c3)cc2)c2c(N)ncnc21 [AD81]	significantly improved suppression	improved rescue relative to AD57	inhibited	inhibited	inhibited	not and greatly reduced mTor activity and lack significant inhibitory activity	Ret inhibition, in words (Ret kinase domain): inhibited
Cn1cnc2c(F)c(Nc3ccc(Br)cc3Cl)c(C(=O)NOCCO)cc21 [AZD6244, reference compound]	–	did not rescue viability	–	–	–	–	AD58-mediated toxicity in wild type flies on co-feeding with the named drug (wild type flies; in vivo): almost completely suppressed
Nc1ncnc2c1c(-c1cnc3[nH]ccc3c1)nn2C1CCCC1 [PP121, reference compound]	limited ability to significantly rescue the transformation phenotype and not	–	–	–	–	–	inhibition of MZ-CRC-1 cell viability / proliferation, in words [5]: levels approaching AD57
CNC(=O)c1cc(Oc2ccc(NC(=O)Nc3ccc(Cl)c(C(F)(F)F)c3)cc2)ccn1 [Sorafenib, reference compound]	measurable rescue that was nonetheless less than AD57; also recorded: did not suppress migration	stronger; also recorded: rescued some animals to adulthood but did not significantly increase the proportion that developed to pupariation	–	–	–	–	notum, scutellum and cuticle defects of ptc>dRetMEN2B adults (ptc>dRet^MEN2B flies; drug fed flies): weakly suppressed; also recorded: some cuticle defects; AD58-mediated toxicity in wild type flies on co-feeding with the named drug (wild type flies; co-feeding with AD58): almost completely suppressed
COc1cc2c(Nc3ccc(Br)cc3F)ncnc2cc1OCC1CCN(C)CC1 [Vandetanib, reference compound]	–	–	–	–	–	–	reduction of tumor progression relative to vehicle [6]: 1.9 fold

Reference: patent US9321772B2, “Substituted pyrazolo[3,4-D]pyrimidines and uses thereof” (The Regents of the University of California, priority 2011, dated 2016)
